{"source": "patent US6500472B2", "about": "“Folic acid and/or vitamin B12-lactoferrin complex” (Snow Brand Milk Products Co., Ltd., priority 2000, dated 2002)", "key": {"[1]": {"biological_target": "T1, lactoferrin (Bos taurus, UniProt P24627)", "T1 sequence (P24627 20-708)": "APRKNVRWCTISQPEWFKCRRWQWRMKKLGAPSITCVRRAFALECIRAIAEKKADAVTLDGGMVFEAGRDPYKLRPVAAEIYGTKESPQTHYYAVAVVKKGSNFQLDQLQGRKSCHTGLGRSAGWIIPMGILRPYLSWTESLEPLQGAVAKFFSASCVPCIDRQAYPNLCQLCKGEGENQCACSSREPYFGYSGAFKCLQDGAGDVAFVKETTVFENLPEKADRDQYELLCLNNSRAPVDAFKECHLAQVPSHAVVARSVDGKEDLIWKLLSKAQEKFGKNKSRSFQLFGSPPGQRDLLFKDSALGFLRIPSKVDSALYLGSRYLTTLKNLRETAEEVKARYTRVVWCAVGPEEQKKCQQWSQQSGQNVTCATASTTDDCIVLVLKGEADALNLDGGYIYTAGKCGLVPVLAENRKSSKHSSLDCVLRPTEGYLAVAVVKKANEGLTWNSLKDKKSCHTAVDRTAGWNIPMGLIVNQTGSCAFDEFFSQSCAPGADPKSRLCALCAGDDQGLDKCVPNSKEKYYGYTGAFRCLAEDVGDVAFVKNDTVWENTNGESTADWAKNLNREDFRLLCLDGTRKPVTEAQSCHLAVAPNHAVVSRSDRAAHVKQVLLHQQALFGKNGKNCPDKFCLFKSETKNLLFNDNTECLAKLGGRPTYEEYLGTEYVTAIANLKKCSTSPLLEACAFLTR", "test": "Folic acid held by lactoferrin (UF membrane separation, free folic acid by optical density at 362 nm)", "type": "binding", "conditions": "for Amount of folic acid held per 1 μmol of lactoferrin: 50 mM sodium bicarbonate pH 8.5", "protocol": "A lactoferrin solution at a concentration of 1 μmol/20 ml was prepared by dissolving lactoferrin in a 50 mM sodium bicarbonate aqueous solution (pH 8.5), and folic acid was added at a concentration of 10 to 300 μmol/20 ml. The resultant admixture was treated with an ultrafiltration (UF) membrane (cut-off molecular weight: 5 kDa; a product of Millipore Corp.) to separate it into the permeate and the retentate. Further, a 50 mM sodium bicarbonate aqueous solution (pH 8.5) was added to the remaining retentate to recover the permeate. This process was repeated four times and the resulting permeate was diluted […] to recover the whole free folic acid into the permeate. The amount of binding-type folic acid remaining in the retentate was calculated from the amount of free folic acid contained in the recovered permeate obtained by measuring optical density at 362 nm. Upon measuring the optical density for folic acid, it was confirmed that no protein was eluted into the permeate and no inhibiting substance derived from proteins existed. Further, a folic acid aqueous solution without protein was simultaneously subjected to the UF membrane treatment to prepare a control sample. These operations and measurements were performed in the dark to prevent decomposition of folic acid. No decomposition of folic acid during the measurement was confirmed by the optical density measurement."}, "[2]": {"test": "Light radiation test (40-watt fluorescent lamp), folic acid measured by method using microorganisms", "type": "physicochemical", "conditions": "phosphate buffer pH 6.5", "protocol": "A light radiation test was carried out with a folic acid-lactoferrin complex. Namely, to a 1 μmol lactoferrin solution which was prepared by dissolving lactoferrin into 50 ml of a 50 mM sodium bicarbonate aqueous solution (pH 8.5) was added folic acid to make a 100 μmol solution. The resultant admixture was subjected to dialysis using a dialysis membrane (cut-off molecular weight: 10 kDa) against a 5 mM phosphate buffer solution (pH 6.5) and then to freeze-drying to obtain a folic acid-lactoferrin complex. The resulting folic acid-lactoferrin complex powder was dissolved in a 50 mM phosphoric acid buffer solution (pH 6.5) at a concentration of 3 mg/100 ml. Separately, folic acid (a product of Sigma) was dissolved in a 50 mM phosphoric acid buffer solution (pH 6.5) at a concentration of 0.8 mg/100 ml. Each sample solution (5 ml) was dispensed into a transparent polyethylene container, water was added to a depth of 5 mm, and the solution was subjected to radiation with a 40-watt fluorescent lump from a height of 30 mm, after which the amount of folic acid was measured by a method using microorganisms. Namely, the pH of the folic acid-lactoferrin complex sample was adjusted to 2.0, 2 mg of pepsin (a product of Sigma) per 1 ml sample were added, and proteolysis was carried out at 37 C for 120 minutes, after which the pH was further adjusted to 7.5, 2 mg of trypsin (a product of Sigma) per 1 ml sample were added, and proteolysis was carried out at 37 C for 120 minutes. After deaeration, the reaction solution was heated for 5 minutes and centrifuged at 15,000 G to recover the supernatant. The amount of folic acid was measured by a method using microorganisms (Davis, R. E., D. J. Nicol & A. Kelly, J. Clin. Path., vol. 23, pp. 47-53, 1970). Further, a calibration curve was obtained by using folic acid (a product of Sigma). These operations and measurements were carried out in the dark except for the fluorescent radiation."}, "[3]": {"test": "Turbidity at 660 nm / solubility in deionized water", "type": "physicochemical", "protocol": "Folic acid and the folic acid-lactoferrin complex used in Test Example 2 were each added to deionized water at a folic acid concentration of 0.1 to 10 μmol/10 ml to measure turbidity at 660 nm."}, "[4]": {"test": "Stability of folic acid in citric acid buffer pH 2.5 after sterilization and storage at 37 C", "type": "physicochemical", "protocol": "Folic acid and the folic acid-lactoferrin complex used in Test Example 2 were each added to a 10 mM citric acid buffer solution (pH 2.5) at a folic acid concentration of 0.25 μmol/10 ml. Next, 50 ml portions of the solutions were dispensed in brown bottles, sterilized at 90 C for 30 minutes and then stored at 37 C. The amount of folic acid was measured in the same manner as in Test Example 2."}, "[5]": {"conditions": "cited from earlier work"}, "[6]": {"biological_target": "T1, lactoferrin", "test": "Vitamin B12 held by lactoferrin (UF membrane separation, method using microorganisms)", "type": "binding", "conditions": "for Amount of vitamin B12 held per 1 μmol of lactoferrin: imidazole buffer pH 6.5", "protocol": "The resultant solution was treated with a UF membrane (cut-off molecular weight: 5 kDa; a product of Millipore Corp.) to separate it into the permeate and the retentate. Further, a 50 mM imidazole buffer solution (pH 6.5) was added to the remaining retentate to recover the permeate. This process was repeated four times and the resulting permeate was diluted […] to recover whole free vitamin B12 into the permeate. Further, the pH of the vitamin B12-lactoferrin complex sample in the retentate was adjusted to 2.0, 2 mg of pepsin (a product of Sigma) per 1 ml sample were added, and proteolysis was carried out at 37 C for 60 minutes, after which the pH was further adjusted to 7.5, 2 mg of trypsin (a product of Sigma) per 1 ml sample were added, and proteolysis was carried out at 37 C for 120 minutes. After heating, the supernatant was recovered by centrifugation at 15,000 G. The amount of vitamin B12 was measured by a method using microorganisms (Encyclopedia of Vitamins, the Japanese Association of Vitaminology, Asakura Shoten, p. 501, 1996). Further, a calibration curve was obtained by using cyanocobalmin (a product of Sigma)."}, "[7]": {"test": "Vitamin B12 reduction after sterilization at 90 C and storage at 35 C for 2 months", "type": "physicochemical", "conditions": "sterilized 90 C 30 min, stored 35 C 2 months", "protocol": "[…] The resultant admixture was subjected to dialysis using a dialysis membrane (cut-off molecular weight: 5 kDa) against deionized water and then to freeze-drying to obtain a vitamin B12-lactoferrin complex in which 57 molecules of vitamin B12 were held per one molecule of lactoferrin. […] […] Portions (5 ml) of each sample solution were dispensed into heat-resistant glass bottles and sealed, sterilized at 90 C for 30 minutes and then stored at 35 C for 2 months. The reduction rates of vitamin B12 were measured. The amount of vitamin B12 was measured in the same manner as in Test Example 5."}, "[8]": {"conditions": "Folic acid concentration 0.1 μmol/10 ml in deionized water"}, "[9]": {"conditions": "Folic acid concentration 1.0 μmol/10 ml in deionized water"}, "[10]": {"conditions": "Folic acid concentration 10 μmol/10 ml in deionized water"}}, "note": "Like-named read-outs stand apart in the source and are kept apart here.", "data": [{"molecule": "Nc1nc2ncc(CNc3ccc(C(=O)N[C@@H](CCC(=O)O)C(=O)O)cc3)nc2c(=O)[nH]1", "note": "[Folic acid]", "values": [{"measurement": "Amount of folic acid held per 1 μmol of lactoferrin", "setting": "[1]; Folic acid added 10 μmol", "result": 9.3, "unit": "µmol"}, {"measurement": "Amount of folic acid held per 1 μmol of lactoferrin", "setting": "[1]; Folic acid added 50 μmol", "result": 40, "unit": "µmol"}, {"measurement": "Amount of folic acid held per 1 μmol of lactoferrin", "setting": "[1]; Folic acid added 100 μmol", "result": 79, "unit": "µmol"}, {"measurement": "Amount of folic acid held per 1 μmol of lactoferrin", "setting": "[1]; Folic acid added 200 μmol", "result": 160, "unit": "µmol"}, {"measurement": "Amount of folic acid held per 1 μmol of lactoferrin", "setting": "[1]; Folic acid added 300 μmol", "result": 210, "unit": "µmol"}, {"measurement": "Maximal amount of folic acid incorporated", "setting": "[1]; maximally", "result": "about 200 molecules per one molecule of lactoferrin"}, {"measurement": "Folic acid", "setting": "[2]; Radiation time 0 min", "result": 0.16, "unit": "μmol/10 ml"}, {"measurement": "Folic acid", "setting": "[2]; Radiation time 0.5 min", "result": 0.13, "unit": "μmol/10 ml"}, {"measurement": "Folic acid", "setting": "[2]; Radiation time 7 min", "result": 0.03, "unit": "μmol/10 ml"}, {"measurement": "Appearance of solution", "setting": "[3]; [8]", "result": "Slightly turbid"}, {"measurement": "Turbidity at 660 nm", "setting": "[3]; [8]", "result": 0.01}, {"measurement": "Appearance of solution", "setting": "[3]; [9]", "result": "Insoluble"}, {"measurement": "Turbidity at 660 nm", "setting": "[3]; [9]", "result": 0.025}, {"measurement": "Appearance of solution", "setting": "[3]; [10]", "result": "Insoluble"}, {"measurement": "Turbidity at 660 nm", "setting": "[3]; [10]", "result": 0.034}, {"measurement": "Solubility of folic acid in deionized water", "setting": "[3]; deionized water", "result": "less than 0.1 μmol/10 ml"}, {"measurement": "Folic acid", "setting": "[4]; Before heat pasteurization, citric acid buffer pH 2.5", "result": 0.28, "unit": "μmol/10 ml"}, {"measurement": "Folic acid", "setting": "[4]; Immediately after heat pasteurization (90 C, 30 min), pH 2.5", "result": 0.18, "unit": "μmol/10 ml"}, {"measurement": "Folic acid", "setting": "[4]; Stored for 2 months at 37 C, pH 2.5", "result": 0.05, "unit": "μmol/10 ml"}, {"measurement": "Folic acid", "setting": "[4]; Stored for 4 months at 37 C, pH 2.5", "result": 0.01, "unit": "μmol/10 ml"}, {"measurement": "Folic acid lost", "setting": "[5]; cow's milk, heat sterilization or during storage", "result": "about 60%"}, {"measurement": "Folic acid lost", "setting": "[5]; powdered milk", "result": 25, "unit": "%"}]}, {"molecule": "Vitamin B12", "values": [{"measurement": "Amount of vitamin B12 held per 1 μmol of lactoferrin", "setting": "[6]; Vitamin B12 added 10 μmol", "result": 4.2, "unit": "µmol"}, {"measurement": "Amount of vitamin B12 held per 1 μmol of lactoferrin", "setting": "[6]; Vitamin B12 added 100 μmol", "result": 41, "unit": "µmol"}, {"measurement": "Amount of vitamin B12 held per 1 μmol of lactoferrin", "setting": "[6]; Vitamin B12 added 500 μmol", "result": 130, "unit": "µmol"}, {"measurement": "Maximal amount of vitamin B12 carried", "setting": "[6]; maximally", "result": "about 100 molecules per one molecule of lactoferrin"}, {"measurement": "Vitamin B12 reduction rate", "setting": "[7]; pH 3.0", "result": 48, "unit": "%"}, {"measurement": "Vitamin B12 reduction rate", "setting": "[7]; pH 7.5", "result": 8, "unit": "%"}]}]}
